Square brackets hold non-standard residues; d marks the D form. Ends that are not written are not given here. Peptide text beside a SMILES is read from it.
Key:
[1] = test system: HEK293T cells; assay: Cytotoxicity MTT assay; format: cell-based, human; conditions: 24 h, 37°C, 128 μM peptide, three independent assays
[2] = test system: IPEC-J2 cells; assay: Cytotoxicity MTT assay; format: cell-based, porcine; conditions: 24 h, 37°C, 128 μM peptide, three independent assays
[3] = test system: E. coli ATCC25922; assay: Salt, serum, acid and alkaline sensitivity; format: cell-based; conditions: for MIC, Control: absence of physiological salts, serum, acid and alkaline; for MIC, FeCl3: in presence of 4μM FeCl3 (final); for MIC, MgCl2: in presence of 1 mM MgCl2; for MIC, KCl: in presence of 4.5 mM KCl (final); for MIC, NaCl: in presence of 150 mM NaCl (final); for MIC, PH=2: peptide incubated at pH=2 for 4 h prior to MIC determination; for MIC, PH=4: peptide incubated at pH=4 for 4 h prior to MIC determination; for MIC, PH=10: peptide incubated at pH=10 for 4 h prior to MIC determination; for MIC, PH=12: peptide incubated at pH=12 for 4 h prior to MIC determination
[4] = test system: Beneficial strains; assay: Geometric mean of MICs; format: cell-based; conditions: geometric mean of MICs against beneficial strains; >128 counted as 256 μM
[5] = test system: E. coli; assay: Geometric mean of MICs, selectivity and targeting indices; format: cell-based; conditions: for TI Pathogenic strains (targeting index): GM(E. coli)/GM(other pathogenic strains); for TI Pathogenic strains (targeting index) / TI Beneficial strains (targeting index): smaller = greater specificity; for SI E. coli (selectivity index): MHC/GM (E. coli), MHC >128 counted as 256 μM, larger = greater cell selectivity; for TI All (TIall, targeting index): all strains, smaller = greater specificity for E. coli; for GM E. coli: geometric mean of MICs against the 6 E. coli strains, >128 counted as 256 μM; for TI Beneficial strains (targeting index): GM(E. coli)/GM(beneficial strains)
[6] = test system: E. coli 25922; assay: Outer membrane permeability; format: cell-based; conditions: 2 μM peptide, relative to 10 μg/mL polymyxin B, 5 mM HEPES pH 7.4

| Compound | cells killed [1] | cells killed [2] | MIC, Control [3] [µM] | MIC, FeCl3 [3] [µM] | MIC, MgCl2 [3] [µM] | MIC, KCl [3] [µM] | MIC, NaCl [3] [µM] | MIC, PH=2 [3] [µM] | MIC, PH=4 [3] [µM] | MIC, PH=10 [3] [µM] | MIC, PH=12 [3] [µM] | GM Beneficial strains [4] [µM] | TI Pathogenic strains (targeting index) [5] | SI E. coli (selectivity index) [5] | TI All (TIall, targeting index) [5] | GM E. coli [5] [µM] | outer membrane permeability (NPN uptake) [6] [%] | TIall lower than that of melittin ([5]; from TIall) [times] | increase of specificity for E. coli relative to parental peptide 2 ([5]; from TIall) [times] | TI Beneficial strains (targeting index) [5] |
| --- | --- | --- | --- | --- | --- | --- | --- | --- | --- | --- | --- | --- | --- | --- | --- | --- | --- | --- | --- | --- |
| WIKIWKKIIKKWKK [Peptide 10] | approximately 99% | ~63% | 8 | 8 | 64 | 8 | 32 | 8 | 8 | 8 | 8 | 181.019 | 0.707 | 40.315 | 0.376 | 6.350 |  |  |  |  |
| CC[C@H](C)[C@H](NC(=O)CNC(=O)[C@H]1CCCN1C(=O)[C@H](CCCCN)NC(=O)[C@H](Cc1c[nH]c2ccccc12)NC(=O)[C@@H](NC(=O)[C@H](CCCCN)NC(=O)[C@H](CCCCN)NC(=O)[C@@H](N)Cc1c[nH]c2ccccc12)[C@@H](C)CC)C(=O)N[C@@H](CCCCN)C(=O)N[C@@H](CCCCN)C(=O)N[C@@H](Cc1c[nH]c2ccccc12)C(=O)N[C@H](C(=O)N[C@@H](CCCCN)C(=O)NCC(=O)NCC(=O)NCC(=O)N[C@@H](CCC(N)=O)C(=O)N[C@@H](CCCCN)C(=O)N[C@@H](CCCNC(=N)N)C(=O)N1CCC[C@H]1C(=O)N[C@@H](CCCNC(=N)N)C(=O)N[C@H](C(=O)N[C@@H](CCCNC(=N)N)C(=O)N[C@@H](CC(C)C)C(=O)N[C@@H](CO)C(=O)N[C@@H](C)C(=O)O)C(C)C)[C@@H](C)CC [Peptide 11] (H-WKKIWK[dP]GIKKWIKGGGQKRPRVRLSA-OH; N-terminus and C-terminus assumed) |  |  | 2 | 4 | 16 | 2 | 32 | 4 | 4 | 2 | 4 | 256.000 | 0.020 | 80.630 | 0.028 | 3.175 | 61 | 31 | 2.4 |  |
| CC[C@H](C)[C@H](NC(=O)CNC(=O)[C@H]1CCCN1C(=O)[C@H](CCCCN)NC(=O)[C@H](Cc1c[nH]c2ccccc12)NC(=O)[C@@H](NC(=O)[C@H](CCCCN)NC(=O)[C@H](CCCCN)NC(=O)[C@H](Cc1c[nH]c2ccccc12)NC(=O)[C@@H](NC(=O)[C@@H](N)CCCCN)[C@@H](C)CC)[C@@H](C)CC)C(=O)N[C@@H](CCCCN)C(=O)N[C@@H](CCCCN)C(=O)N[C@@H](Cc1c[nH]c2ccccc12)C(=O)N[C@H](C(=O)N[C@@H](CCCCN)C(=O)N[C@@H](CCCCN)C(=O)N[C@@H](Cc1c[nH]c2ccccc12)C(=O)O)[C@@H](C)CC [Peptide 3] (H-KIWKKIWK[dP]GIKKWIKKW-OH; N-terminus and C-terminus assumed) |  |  | 4 | 4 | 8 | 4 | 16 | 4 | 4 | 4 | 4 | 256.000 | 0.079 | 90.523 |  | 2.828 |  |  |  | 0.011 |
| CC[C@H](C)[C@H](NC(=O)CNC(=O)[C@H]1CCCN1C(=O)[C@H](CCCCN)NC(=O)[C@H](Cc1c[nH]c2ccccc12)NC(=O)[C@@H](NC(=O)[C@H](CCCCN)NC(=O)[C@H](CCCCN)NC(=O)[C@H](Cc1c[nH]c2ccccc12)NC(=O)[C@@H](NC(=O)[C@H](CCCCN)NC(=O)[C@H](CCCCN)NC(=O)[C@@H](N)Cc1c[nH]c2ccccc12)[C@@H](C)CC)[C@@H](C)CC)C(=O)N[C@@H](CCCCN)C(=O)N[C@@H](CCCCN)C(=O)N[C@@H](Cc1c[nH]c2ccccc12)C(=O)N[C@H](C(=O)N[C@@H](CCCCN)C(=O)N[C@@H](CCCCN)C(=O)N[C@@H](Cc1c[nH]c2ccccc12)C(=O)N[C@H](C(=O)N[C@@H](CCCCN)C(=O)O)[C@@H](C)CC)[C@@H](C)CC [Peptide 4] (H-WKKIWKKIWK[dP]GIKKWIKKWIK-OH; N-terminus and C-terminus assumed) | approximately 99% | approximately 99% | 2 | 2 | 2 | 2 | 2 | 2 | 2 | 2 | 2 | 50.797 | 0.445 |  | 0.233 | 1.122 |  |  |  | 0.022 |
| CC[C@H](C)[C@H](NC(=O)CNC(=O)[C@H]1CCCN1C(=O)[C@H](CCCCN)NC(=O)[C@H](Cc1c[nH]c2ccccc12)NC(=O)[C@@H](NC(=O)[C@H](CCCCN)NC(=O)[C@H](CCCCN)NC(=O)[C@@H](N)Cc1c[nH]c2ccccc12)[C@@H](C)CC)C(=O)N[C@@H](CCCCN)C(=O)N[C@@H](CCCCN)C(=O)N[C@@H](Cc1c[nH]c2ccccc12)C(=O)N[C@H](C(=O)N[C@@H](CCCCN)C(=O)NCC(=O)NCC(=O)NCC(=O)N[C@@H](CCCCN)C(=O)N[C@@H](CCCCN)C(=O)O)[C@@H](C)CC [Peptide 6] (H-WKKIWK[dP]GIKKWIKGGGKK-OH; N-terminus and C-terminus assumed) |  |  | 8 | 8 | 32 | 8 | >64 | 32 | 16 | 16 | 16 | 256.000 | 0.056 | 20.159 | 0.053 | 12.699 |  |  |  | 0.050 |
| QKRPRVRLSA [Peptide 14, reference compound] |  |  | 64 | >64 | >64 | >64 | >64 | 64 | >64 | >64 | 64 | 256.000 | 0.397 | 2.520 | 0.397 | 101.594 |  |  |  | 0.397 |
| CC[C@H](C)[C@H](NC(=O)CNC(=O)[C@H]1CCCN1C(=O)[C@H](CCCCN)NC(=O)[C@H](Cc1c[nH]c2ccccc12)NC(=O)[C@@H](NC(=O)[C@H](CCCCN)NC(=O)[C@@H](NC(=O)[C@@H](N)Cc1c[nH]c2ccccc12)[C@@H](C)CC)[C@@H](C)CC)C(=O)N[C@@H](CCCCN)C(=O)N[C@@H](CCCCN)C(=O)N[C@@H](Cc1c[nH]c2ccccc12)C(=O)N[C@H](C(=O)N[C@@H](CCCCN)C(=O)O)[C@@H](C)CC [Peptide 7] (H-WIKIWK[dP]GIKKWIK-OH; N-terminus and C-terminus assumed) |  |  | 32 | 32 | >64 | 32 | >64 | 32 | 32 | 32 | 32 | 256.000 | 0.111 | 10.080 | 0.105 | 25.398 |  |  |  | 0.099 |
| CC[C@H](C)[C@H](NC(=O)CNC(=O)[C@H]1CCCN1C(=O)[C@H](CCCCN)NC(=O)[C@H](Cc1c[nH]c2ccccc12)NC(=O)[C@@H](NC(=O)[C@H](CCCCN)NC(=O)[C@H](CCCCN)NC(=O)[C@@H](N)Cc1c[nH]c2ccccc12)[C@@H](C)CC)C(=O)N[C@@H](CCCCN)C(=O)N[C@@H](CCCCN)C(=O)N[C@@H](Cc1c[nH]c2ccccc12)C(=O)N[C@H](C(=O)N[C@@H](CCCCN)C(=O)O)[C@@H](C)CC [Peptide 2] (H-WKKIWK[dP]GIKKWIK-OH; N-terminus and C-terminus assumed) |  |  | 16 | 16 | 32 | 16 | >64 | 32 | 16 | 16 | 32 | 256.000 | 0.070 | 16.000 | 0.067 | 16.000 |  |  |  | 0.063 |

— paper doi:10.1101/679977v1 (bioRxiv, 2019)
